Paper PMC2752035 (Bioorganic & medicinal chemistry, 2009)

Biological target: sarco/endoplasmic reticulum calcium ATPase (SERCA) (Oryctolagus cuniculus, UniProt P04191)
Assay: SERCA-catalyzed ATP hydrolysis, coupled PK/LDH NADH oxidation assay

Sequence of sarco/endoplasmic reticulum calcium ATPase (SERCA) (P04191 1-994 isoform P04191-2): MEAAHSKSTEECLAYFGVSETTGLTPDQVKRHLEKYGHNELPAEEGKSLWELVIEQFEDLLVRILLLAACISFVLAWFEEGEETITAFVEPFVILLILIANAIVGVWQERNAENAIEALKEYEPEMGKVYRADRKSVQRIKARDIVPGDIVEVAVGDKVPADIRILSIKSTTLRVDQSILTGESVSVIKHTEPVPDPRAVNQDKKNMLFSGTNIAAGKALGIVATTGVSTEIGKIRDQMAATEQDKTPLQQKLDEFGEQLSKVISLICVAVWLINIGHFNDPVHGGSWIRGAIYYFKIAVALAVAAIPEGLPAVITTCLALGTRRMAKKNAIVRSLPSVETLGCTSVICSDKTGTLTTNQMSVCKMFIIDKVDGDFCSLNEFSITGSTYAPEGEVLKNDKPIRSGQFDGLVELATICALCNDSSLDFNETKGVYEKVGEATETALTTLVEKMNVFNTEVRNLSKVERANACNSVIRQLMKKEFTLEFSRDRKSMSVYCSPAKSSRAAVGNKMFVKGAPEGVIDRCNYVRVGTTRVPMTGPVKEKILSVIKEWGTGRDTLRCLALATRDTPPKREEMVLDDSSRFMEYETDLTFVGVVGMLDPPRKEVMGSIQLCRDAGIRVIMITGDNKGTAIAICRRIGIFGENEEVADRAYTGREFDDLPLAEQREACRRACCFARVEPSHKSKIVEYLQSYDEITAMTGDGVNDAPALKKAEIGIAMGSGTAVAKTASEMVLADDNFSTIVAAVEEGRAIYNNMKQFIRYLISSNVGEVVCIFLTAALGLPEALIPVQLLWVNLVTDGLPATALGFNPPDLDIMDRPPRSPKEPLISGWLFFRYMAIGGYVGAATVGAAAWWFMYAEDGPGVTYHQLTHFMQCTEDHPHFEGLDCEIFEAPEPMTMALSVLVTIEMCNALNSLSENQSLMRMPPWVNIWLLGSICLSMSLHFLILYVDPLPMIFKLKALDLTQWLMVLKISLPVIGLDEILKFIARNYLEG

SERCA inhibition (activity in words): inactive
Compound: CC(C)(C)OC(=O)NCCCC(=O)Oc1cc(C(C)(C)C)c(OC(=O)CCCNC(=O)OC(C)(C)C)cc1C(C)(C)C [8a]
